Test results: patent US9063143B2, “Cancer platinum resistance detection and sensitization method” (University of South Florida, priority 2008, dated 2015)

Experiments:
Experiment in all cases: MTT cell proliferation assay, cisplatin resistance
Assay type in all cases: cell-based
Details in all cases: MTT proliferation rate at 2 μg/mL
[1] = test system: T8 ovarian cancer cell line
Procedure: (§1) Ovarian cancer cell lines (C13, OV2008, A2780S, A2780CP, IGROV1, T8, A2008, IOSER, and OVCAR5) were grown in RPMI-1640 supplemented with 10% fetal bovine serum, 1% sodium pyruvate, and 1% nonessential amino acids. IOSER cells were grown in 1:1 MCBD105 and Medium 199, HEPES, Bovine Pituitary Extract, Insulin, hEGF, hydrocortisone and 15% FBS. All tissue culture reagents were obtained from Sigma Aldrich (St Louis, Mo.). Cells were maintained in a CO2 incubator at 37° C. and subcultured at 70% confluence. The cell lines consist of two from the NCI60 panel: IGR-OV1 (doubling time 31) and OVCAR-5 (doubling time 48.8). Several cell lines have mother/daughter relationships including A2008 and daughter C13; as well as A2780S/A2780CP.
(§2) To induce the development of platinum-resistance, the nine ovarian cancer cell lines were subjected to serial treatments with increasing dose cisplatin (Group A: 1 and 3 μg/mL, Group B: 2 and 4 μg/mL, and Group C: 3 and 5 μg/mL) using a protocol previously described by Hong et al (Antisense Bcl2 oligonucleotide in cisplatin-resistant bladder cancer cell lines. BJU Int. 2002 July; 90(1):113-7). For each of the 9 cell lines, three different dosage schedules were used: Schedule A—3 treatment/recovery cycles at 1 μg/mL, followed by 3 treatment/recovery cycles at 3 μg/mL; Schedule B—3 treatment/recovery cycles at 2 μg/mL, followed by 3 treatment/recovery cycles at 4 μg/mL; Schedule C—3 treatment/recovery cycles at 3 μg/mL, followed by 3 treatment/recovery cycles at 5 μg/mL. After each treatment, cells were allowed to recover before re-treatment. Gene expression analysis was performed prior to treatment, after 3 and 6 treatments. The experiment design and notations used for each treatment schedule are outlined in Table 1.
(§3) Thus, for each of the 9 cell lines, 3 different starting doses of cisplatin were used with three different recovery cycles, such that a total of 162 treatment/recovery cycles were induced. Increasing platinum-resistance was confirmed by MTT cell proliferation assays prior to cisplatin treatment, and after 3 and 6 treatment/recovery cycles (for each treatment schedule).
(§4) MTT solution was produced by dissolving 3-(4,5-Dimethylthiazol-2-yl)-2,5-diphenyltetrazolium bromide (MTT; Sigma, St. Louis, Mo., USA) in phosphate-buffered saline (PBS; 5 mg/mL). Cells (1×10^3) were incubated with 100 μL of culture medium for 48 h in 96-well plates, and 100 μL of MTT solution with RPMI media in a 1:10 concentration was added to each well. After 4 h of incubation, medium was decanted. 100 μL of acidified isopropanol was added to each well. […] MTT assays were performed independently in triplicate per each experimental time point and means reported. For each cell line at each time-point for each schedule, an IC50 was calculated using MTT assay, as well as a percent cell survival at a fixed cisplatin concentration (based upon the mid-point of the log-phase of the dose-response curve for each cell line at baseline), seen in Table 2.
(§5) Prior to treatment (baseline), and at each dose level following treatment (3 and 6 treatment/recovery cycles) and cell recovery, RNA was extracted and genome-wide expression analysis performed using U133 plus 2.0 Affymetrix chips and cisplatin-resistance was quantified using MTT assay. In parallel, at each of these time-points, RNA was extracted and genome-wide expression analysis performed using U133 plus 2.0 Affymetrix chips. Array analysis was performed on 72 samples. Following recovery from each dose level, cells were evaluated for platinum-resistance using MTT proliferation assay, seen in Table 3. Cell line recovery was defined as the time taken for the cells to repopulate in a normal fashion (to reach 70% confluence in 48 hours). Cell line proliferation rate at 2 μg/mL was used as a measure of resistance.

IOSER cells = test system: IOSER cells
Procedure: as §1, §2, §3, §4, §5

[2] = test system: OV2008 ovarian cancer cell line
Procedure: as §1, §2, §3, §4, §5

[3] = test system: A2008 ovarian cancer cell line
Procedure: as §1, §2, §3, §4, §5

[4] = test system: C13 ovarian cancer cell line
Procedure: as §1, §2, §3, §4, §5

[5] = test system: A2780CP ovarian cancer cell line
Procedure: as §1, §2, §3, §4, §5

[6] = test system: OVCAR5 ovarian cancer cell line
Procedure: as §1, §2, §3, §4, §5

[7] = test system: A2780S ovarian cancer cell line
Procedure: as §1, §2, §3, §4, §5

[8] = test system: IGROV1 ovarian cancer cell line
Procedure: as §1, §2, §3, §4, §5

## N.N.[Cl][Pt][Cl] [cisplatin]
[1]; T8 after cisplatin regimen 1.33
  Cell population measurements: 42
[1]; T8 after cisplatin regimen 2.33
  Cell population measurements: 64
[1]; T8 after cisplatin regimen 3.33
  Cell population measurements: 67
[1]; T8 after cisplatin regimen 3.36
  Cell population measurements: 68.4
[1]; T8 after cisplatin regimen 4.36
  Cell population measurements: 69
[1]; T8 after cisplatin regimen 5.36
  Cell population measurements: 62
IOSER cells; IOSER after cisplatin regimen 1.33
  Cell population measurements: 62
IOSER cells; IOSER after cisplatin regimen 2.33
  Cell population measurements: 70
IOSER cells; IOSER after cisplatin regimen 3.33
  Cell population measurements: 79
IOSER cells; IOSER after cisplatin regimen 3.36
  Cell population measurements: 89
IOSER cells; IOSER after cisplatin regimen 4.36
  Cell population measurements: 71
IOSER cells; IOSER after cisplatin regimen 5.36
  Cell population measurements: 84
[2]; OV2008 after cisplatin regimen 1.33
  Cell population measurements: 62
[2]; OV2008 after cisplatin regimen 2.33
  Cell population measurements: 54
[2]; OV2008 after cisplatin regimen 3.33
  Cell population measurements: 67
[2]; OV2008 after cisplatin regimen 3.36
  Cell population measurements: 64.8
[2]; OV2008 after cisplatin regimen 4.36
  Cell population measurements: 98
[2]; OV2008 after cisplatin regimen 5.36
  Cell population measurements: 86
[3]; A2008 after cisplatin regimen 1.33
  Cell population measurements: 19
[3]; A2008 after cisplatin regimen 2.33
  Cell population measurements: 33
[3]; A2008 after cisplatin regimen 3.33
  Cell population measurements: 25
[3]; A2008 after cisplatin regimen 3.36
  Cell population measurements: 25.6
[3]; A2008 after cisplatin regimen 4.36
  Cell population measurements: 29
[3]; A2008 after cisplatin regimen 5.36
  Cell population measurements: 37
[4]; C13 after cisplatin regimen 1.33
  Cell population measurements: 83
[4]; C13 after cisplatin regimen 2.33
  Cell population measurements: 73
[4]; C13 after cisplatin regimen 3.33
  Cell population measurements: 71
[4]; C13 after cisplatin regimen 3.36
  Cell population measurements: 53
[4]; C13 after cisplatin regimen 4.36
  Cell population measurements: 91
[4]; C13 after cisplatin regimen 5.36
  Cell population measurements: 67
[5]; A2780CP after cisplatin regimen 1.33
  Cell population measurements: 84
[5]; A2780CP after cisplatin regimen 2.33
  Cell population measurements: 100
[5]; A2780CP after cisplatin regimen 3.33
  Cell population measurements: 91
[5]; A2780CP after cisplatin regimen 3.36
  Cell population measurements: 100
[5]; A2780CP after cisplatin regimen 4.36
  Cell population measurements: 83
[5]; A2780CP after cisplatin regimen 5.36
  Cell population measurements: 98
[6]; OVCAR5 after cisplatin regimen 1.33
  Cell population measurements: 49
[6]; OVCAR5 after cisplatin regimen 2.33
  Cell population measurements: 41
[6]; OVCAR5 after cisplatin regimen 3.33
  Cell population measurements: 47
[6]; OVCAR5 after cisplatin regimen 3.36
  Cell population measurements: 66.5
[6]; OVCAR5 after cisplatin regimen 4.36
  Cell population measurements: 69
[6]; OVCAR5 after cisplatin regimen 5.36
  Cell population measurements: 63
[7]; A2780S after cisplatin regimen 1.33
  Cell population measurements: 26
[7]; A2780S after cisplatin regimen 2.33
  Cell population measurements: 39
[7]; A2780S after cisplatin regimen 3.33
  Cell population measurements: 64
[7]; A2780S after cisplatin regimen 3.36
  Cell population measurements: 30.5
[7]; A2780S after cisplatin regimen 4.36
  Cell population measurements: 87
[7]; A2780S after cisplatin regimen 5.36
  Cell population measurements: 72
[8]; IGROV1 after cisplatin regimen 1.33
  Cell population measurements: 69
[8]; IGROV1 after cisplatin regimen 2.33
  Cell population measurements: 48
[8]; IGROV1 after cisplatin regimen 3.33
  Cell population measurements: 55
[8]; IGROV1 after cisplatin regimen 3.36
  Cell population measurements: 68.3
[8]; IGROV1 after cisplatin regimen 4.36
  Cell population measurements: 69
[8]; IGROV1 after cisplatin regimen 5.36
  Cell population measurements: 58
